The source of these data is US7173004B2, “Macrocyclic isoquinoline peptide inhibitors of hepatitis C virus” (Bristol-Myers Squibb Company, priority 2003, dated 2007).

Where only a bound is given, the exact number is not on record here.

The experiment deals with T1, HCV NS3/4A protease complex, BMS strain (genotype 1a) (UniProt P27958, C1454S/C1711G, species not given/STRAIN_BMS).
T1 construct: b1001: DNA encoding the recombinant HCV NS3/4A protease complex (amino acids 1027 to 1711) ... a three-lysine solubilizing tail was added at the 3′-end of the NS4A coding region; fused on or other part: Three-lysine solubilising tail at the C-terminus of NS4A; A His tag is implied by the pET21b vector and Ni-NTA purification
Kind of experiment: Recombinant HCV NS3/4A protease complex FRET peptide assay, BMS strain. In kind it is biochemical. To be noted: NS3/4A BMS strain; activity range symbols. In short, it runs like this: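 Recombinant NS3/4A (aa 1027–1711) from H77C, J4L6S or BMS strains, with C1454S and C1711G mutations and three-lysine tail, expressed in E. coli and Ni-NTA/gel-filtration purified to >90%. Inhibition of cleavage of a FRET peptide substrate measured.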
`COc1cccc2c(OC3CC4C(=O)NC5(C(=O)NS(=O)(=O)C6CC6)CC5C=CCCCCCC(NC(=O)OC(C)(C)C)C(=O)N4C3)nccc12` (centres unmarked) [Compound 133]: the IC50 is less than 50 nM.

In the case of `COc1ccc2c(OC3CC4C(=O)NC5(C(=O)NS(=O)(=O)C6CC6)CC5C=CCCCCCC(NC(=O)OC(C)(C)C)C(=O)N4C3)nccc2c1OC` (centres unmarked) [Compound 134], the IC50 was less than 50 nM.

As for `COc1ccc2c(OC3CC4C(=O)NC5(C(=O)NS(=O)(=O)C6CC6)CC5C=CCCCCCC(NC(=O)NC(C)(C)C)C(=O)N4C3)nccc2c1` (centres unmarked) [Compound 135], the 50% inhibitory concentration (IC50) was less than 50 nM.

Consider `COc1ccc2c(OC3CC4C(=O)NC5(C(=O)NS(=O)(=O)C6CC6)CC5C=CCCCCCC(NC(=O)NC5CCCC5)C(=O)N4C3)nccc2c1` (centres unmarked) [Compound 136], for which the IC50 is less than 50 nM.

With `COc1ccc2c(O[C@@H]3C[C@H]4C(=O)N[C@]5(C(=O)NS(=O)(=O)C6CC6)C[C@H]5/C=C\COCC[C@H](NC(=O)OC(C)(C)C)C(=O)N4C3)nccc2c1` [Compound 141, [(Z)-(1S,4R,13S,17R)-4-cyclopropanesulfonylaminocarbonyl-17-(6-methoxy-isoquinolin-1-yloxy)-2,14-dioxo-10-oxa-3,15-diaza-tricyclo[13.3.0.0^4,6]octadec-7-en-13-yl]-carbamic acid tert-butyl ester], the IC50 was in the range of 50 to 500 nM.

As to `CC(C)(C)OC(=O)N[C@H]1CN(S(=O)(=O)c2ccccc2[N+](=O)[O-])CCC/C=C\[C@@H]2C[C@@]2(C(=O)NS(=O)(=O)C2CC2)NC(=O)[C@@H]2C[C@@H](Oc3nccc4ccccc34)CN2C1=O` [Compound 145], the IC50 was less than 50 nM.

Regarding `CC(=O)N1CCC/C=C\[C@@H]2C[C@@]2(C(=O)NS(=O)(=O)C2CC2)NC(=O)[C@@H]2C[C@@H](Oc3nccc4ccccc34)CN2C(=O)[C@@H](NC(=O)OC(C)(C)C)C1` [Compound 146], the IC50 was less than 50 nM.

For `CN1CCC/C=C\[C@@H]2C[C@@]2(C(=O)NS(=O)(=O)C2CC2)NC(=O)[C@@H]2C[C@@H](Oc3nccc4ccccc34)CN2C(=O)[C@@H](NC(=O)OC(C)(C)C)C1` [Compound 147], the IC50 is less than 50 nM.

Take `COC(=O)N1CCC/C=C\[C@@H]2C[C@@]2(C(=O)NS(=O)(=O)C2CC2)NC(=O)[C@@H]2C[C@@H](Oc3nccc4ccccc34)CN2C(=O)[C@@H](NC(=O)OC(C)(C)C)C1` [Compound 148]: the IC50 was less than 50 nM.

Consider `CC(C)(C)COC(=O)N1CCCC=CC2CC2(C(=O)NS(=O)(=O)C2CC2)NC(=O)C2CC(Oc3nccc4ccccc34)CN2C(=O)C(NC(=O)OC(C)(C)C)C1` (centres unmarked) [Compound 149], for which the IC50 was less than 50 nM.

`CC(C)(C)NC(=O)N1CCC/C=C\[C@@H]2C[C@@]2(C(=O)NS(=O)(=O)C2CC2)NC(=O)[C@@H]2C[C@@H](Oc3nccc4ccccc34)CN2C(=O)[C@@H](NC(=O)OC(C)(C)C)C1` [Compound 150]: the IC50 was less than 50 nM.

Take `CC(C)(C)OC(=O)N[C@H]1CNCCC/C=C\[C@@H]2C[C@@]2(C(=O)NS(=O)(=O)C2CC2)NC(=O)[C@@H]2C[C@@H](Oc3nccc4ccccc34)CN2C1=O` [Compound 151]: the half-inhibitory concentration (IC50) is less than 50 nM.

Take `CC(C)(C)OC(=O)NC1CN(C(=O)C2CC2)CCCC=CC2CC2(C(=O)NS(=O)(=O)C2CC2)NC(=O)C2CC(Oc3nccc4ccccc34)CN2C1=O` (centres unmarked) [Compound 152]: the IC50 was less than 50 nM.

With `CC(C)(C)OC(=O)N[C@H]1CN(S(C)(=O)=O)CCC/C=C\[C@@H]2C[C@@]2(C(=O)NS(=O)(=O)C2CC2)NC(=O)[C@@H]2C[C@@H](Oc3nccc4ccccc34)CN2C1=O` [Compound 153], the IC50 is less than 50 nM.

As a reminder, the IC50 is the point on the concentration scale where inhibition reaches its midpoint.
